Here are results for 9 molecules from ChEMBL document CHEMBL1149760, “Chemoenzymatic synthesis and antimicrobial activity evaluation of monogalactosyl diglycerides” (2008).

Assay type in all cases: functional
The test system of test [1] is Staphylococcus aureus. Kind of test: Antimicrobial activity against Staphylococcus aureus ATCC 105487 by agar dilution method. (In general: In agar dilution, organisms are placed on agar that contains the substance at set levels.)
Test [2] deals with Staphylococcus aureus. Kind of test: Antimicrobial activity against Staphylococcus aureus ATCC 25923 by agar dilution method.
The test system of a further test is Enterococcus faecalis. Kind of test: Antimicrobial activity against Enterococcus faecalis ATCC 29212 by agar dilution method.
For another test, the system named is Bacillus subtilis. Kind of test: Antimicrobial activity against Bacillus subtilis ATCC 6633 by agar dilution method.
The test system of another test is Escherichia coli. Kind of test: Antimicrobial activity against Escherichia coli ATCC 25922 by agar dilution method.
A further test deals with Pseudomonas aeruginosa. Kind of test: Antimicrobial activity against Pseudomonas aeruginosa ATCC 27753 by agar dilution method.
Test [3] concerns Staphylococcus aureus. Kind of test: Antimicrobial activity against Staphylococcus aureus SA52 by agar dilution method.
Test [4] relates to Staphylococcus aureus. Kind of test: Antimicrobial activity against Staphylococcus aureus SA85 by agar dilution method.
Test [5] concerns Staphylococcus aureus. Kind of test: Antimicrobial activity against Staphylococcus aureus SA87 by agar dilution method.
Test [6] has as its system Mycobacterium tuberculosis. Kind of test: Antimicrobial activity against Mycobacterium tuberculosis H37Rv by agar dilution method.
The test system of test [7] is Mycobacterium tuberculosis. Kind of test: Antimicrobial activity against Mycobacterium tuberculosis H160 by agar dilution method.
The test system of test [8] is Mycobacterium tuberculosis. Kind of test: Antimicrobial activity against Mycobacterium tuberculosis H190 by agar dilution method.
The subject of the next test is Candida albicans. Kind of test: Antifungal activity against Candida albicans by agar dilution method.
Another test relates to Kluyveromyces marxianus. Kind of test: Antifungal activity against Candida pseudotropicalis by agar dilution method.

The structures appear in SMILES notation. Where only a bound is given, the exact number is not on record here.

As usually defined, the MIC is the smallest concentration in the dilution series that meets the test's criterion for growth inhibition. Low values mean greater potency, high ones weaker potency. Turning to `CCCCC/C=C/C/C=C/CCCCCCCC(=O)OC(COC(=O)CCCCCCCCC)CO[C@@H]1O[C@H](CO)[C@H](O)[C@H](O)[C@H]1O` (mixture of isomers), the MIC against Staphylococcus aureus [1] was 64 µg/mL; against Staphylococcus aureus [2] it was more than 128 µg/mL; with Enterococcus faecalis it was 128 µg/mL; against Bacillus subtilis, 128 µg/mL; against Escherichia coli, more than 128 µg/mL; against Pseudomonas aeruginosa, more than 128 µg/mL. The MIC in the test on Staphylococcus aureus [3] is more than 128 µg/mL; in the test on Staphylococcus aureus [4], 64 µg/mL; with Staphylococcus aureus [5] it was 64 µg/mL; in test [6], more than 128 µg/mL; in test [7], more than 128 µg/mL; in test [8], more than 128 µg/mL. Further, the MIC in the test with Candida albicans and with Kluyveromyces marxianus was more than 128 µg/mL in each case.
On to `CCCCC/C=C/C/C=C/CCCCCCCC(=O)OC(COC(=O)CCCCCCC)CO[C@@H]1O[C@H](CO)[C@H](O)[C@H](O)[C@H]1O` (mixture of isomers), for which the minimum inhibitory concentration (MIC) is more than 128 µg/mL in the test on Staphylococcus aureus [1]; more than 128 µg/mL against Staphylococcus aureus [2]; more than 128 µg/mL with Enterococcus faecalis; 128 µg/mL in the test with Bacillus subtilis; more than 128 µg/mL in the test on Escherichia coli; more than 128 µg/mL in the test with Pseudomonas aeruginosa. Moreover, the minimum inhibitory concentration (MIC) in the test on Staphylococcus aureus [3] is more than 128 µg/mL; against Staphylococcus aureus [4], more than 128 µg/mL; with Staphylococcus aureus [5], 128 µg/mL; in [6], 64 µg/mL; in test [7], 64 µg/mL; in test [8], 128 µg/mL. In addition, the minimum inhibitory concentration (MIC) in the test on Candida albicans and against Kluyveromyces marxianus was more than 128 µg/mL in each case.
Regarding `CC/C=C/C/C=C/C/C=C/CCCCCCCC(=O)OCC(CO[C@@H]1O[C@H](CO)[C@H](O)[C@H](O)[C@H]1O)OC(=O)CCCCCCC/C=C/C/C=C/C/C=C/CC` (mixture of isomers), the MIC was more than 128 µg/mL in the test on Staphylococcus aureus [1]; 128 µg/mL against Staphylococcus aureus [2]; more than 128 µg/mL in the test with Enterococcus faecalis; more than 128 µg/mL against Bacillus subtilis; more than 128 µg/mL against Escherichia coli; more than 128 µg/mL against Pseudomonas aeruginosa. The MIC (in the test on Staphylococcus aureus [3]; against Staphylococcus aureus [4]; in the test on Staphylococcus aureus [5]; in [6]; in test [7]; in [8]) was more than 128 µg/mL in each case. Also, the MIC with Candida albicans and in the test with Kluyveromyces marxianus was more than 128 µg/mL each time.
In the case of `CCCCCCCC/C=C/CCCCCCCC(=O)OC(COC(=O)CCCCCCCCC)CO[C@@H]1O[C@H](CO)[C@H](O)[C@H](O)[C@H]1O` (mixture of isomers), the MIC was more than 128 µg/mL against Staphylococcus aureus [1]; 128 µg/mL against Staphylococcus aureus [2]; more than 128 µg/mL against Enterococcus faecalis; 32 µg/mL against Bacillus subtilis; more than 128 µg/mL with Escherichia coli; more than 128 µg/mL against Pseudomonas aeruginosa. Also, the minimal inhibitory concentration (MIC) with Staphylococcus aureus [3] was more than 128 µg/mL; against Staphylococcus aureus [4], 128 µg/mL; against Staphylococcus aureus [5] it was more than 128 µg/mL; in test [6], more than 128 µg/mL; in test [7] it was more than 128 µg/mL; in [8] it was more than 128 µg/mL. For the same molecule, the minimal inhibitory concentration (MIC) in the test on Candida albicans and against Kluyveromyces marxianus was more than 128 µg/mL throughout.
Consider `CC/C=C/C/C=C/C/C=C/CCCCCCCC(=O)OC(COC(=O)CCCCCCCCC)CO[C@@H]1O[C@H](CO)[C@H](O)[C@H](O)[C@H]1O` (mixture of isomers), for which the MIC against Staphylococcus aureus [1], with Staphylococcus aureus [2], in the test on Enterococcus faecalis, with Bacillus subtilis, against Escherichia coli and in the test with Pseudomonas aeruginosa was more than 128 µg/mL throughout. In addition, the minimum inhibitory concentration (MIC) was more than 128 µg/mL in the test on Staphylococcus aureus [3]; 64 µg/mL against Staphylococcus aureus [4]; 32 µg/mL in the test with Staphylococcus aureus [5]; more than 128 µg/mL in [6]; more than 128 µg/mL in test [7]; more than 128 µg/mL in test [8]. Further, the MIC against Candida albicans and against Kluyveromyces marxianus was more than 128 µg/mL in each case.
As to `CC/C=C/C/C=C/C/C=C/CCCCCCCC(=O)OC(COC(=O)CCCCCCC)CO[C@@H]1O[C@H](CO)[C@H](O)[C@H](O)[C@H]1O` (mixture of isomers), the MIC is more than 128 µg/mL against Staphylococcus aureus [1]; more than 128 µg/mL against Staphylococcus aureus [2]; more than 128 µg/mL with Enterococcus faecalis; 128 µg/mL against Bacillus subtilis; more than 128 µg/mL with Escherichia coli; more than 128 µg/mL in the test on Pseudomonas aeruginosa. Moreover, the minimum inhibitory concentration (MIC) is more than 128 µg/mL against Staphylococcus aureus [3]; more than 128 µg/mL in the test on Staphylococcus aureus [4]; 64 µg/mL in the test on Staphylococcus aureus [5]; 128 µg/mL in test [6]; 128 µg/mL in test [7]; 128 µg/mL in [8]. Also, the MIC against Candida albicans and against Kluyveromyces marxianus was more than 128 µg/mL in each case.
Take `CCCCCCCC/C=C/CCCCCCCC(=O)OC(COC(=O)CCCCCCC)CO[C@@H]1O[C@H](CO)[C@H](O)[C@H](O)[C@H]1O` (mixture of isomers): the minimum inhibitory concentration (MIC) was more than 128 µg/mL against Staphylococcus aureus [1]; more than 128 µg/mL in the test with Staphylococcus aureus [2]; more than 128 µg/mL with Enterococcus faecalis; 128 µg/mL with Bacillus subtilis; more than 128 µg/mL with Escherichia coli; more than 128 µg/mL against Pseudomonas aeruginosa. Further, the MIC is more than 128 µg/mL against Staphylococcus aureus [3]; more than 128 µg/mL against Staphylococcus aureus [4]; 64 µg/mL against Staphylococcus aureus [5]; 128 µg/mL in [6]; 64 µg/mL in test [7]; 64 µg/mL in test [8]. In addition, the MIC in the test with Candida albicans and in the test on Kluyveromyces marxianus was more than 128 µg/mL in each case.
`CCCCC/C=C/C/C=C/CCCCCCCC(=O)OCC(CO[C@@H]1O[C@H](CO)[C@H](O)[C@H](O)[C@H]1O)OC(=O)CCCCCCC/C=C/C/C=C/CCCCC` (mixture of isomers): the MIC in the test with Staphylococcus aureus [1] is more than 128 µg/mL; with Staphylococcus aureus [2], more than 128 µg/mL; against Enterococcus faecalis, more than 128 µg/mL; against Bacillus subtilis it was 128 µg/mL; in the test on Escherichia coli, more than 128 µg/mL; in the test with Pseudomonas aeruginosa, more than 128 µg/mL. Further, the MIC with Staphylococcus aureus [3] is more than 128 µg/mL; in the test with Staphylococcus aureus [4], more than 128 µg/mL; against Staphylococcus aureus [5], 128 µg/mL; in [6] it was 128 µg/mL; in test [7], 128 µg/mL; in [8], 128 µg/mL. The MIC with Candida albicans and against Kluyveromyces marxianus was more than 128 µg/mL throughout.
With `CCCCCCCC/C=C/CCCCCCCC(=O)OCC(CO[C@@H]1O[C@H](CO)[C@H](O)[C@H](O)[C@H]1O)OC(=O)CCCCCCC/C=C/CCCCCCCC` (mixture of isomers), the MIC with Staphylococcus aureus [1], against Staphylococcus aureus [2], with Enterococcus faecalis, in the test on Bacillus subtilis, with Escherichia coli and with Pseudomonas aeruginosa was more than 128 µg/mL each time. Moreover, the MIC (against Staphylococcus aureus [3]; in the test with Staphylococcus aureus [4]; against Staphylococcus aureus [5]; in test [6]; in test [7]; in test [8]) was more than 128 µg/mL throughout. The minimal inhibitory concentration (MIC) with Candida albicans and in the test with Kluyveromyces marxianus was more than 128 µg/mL in each case.
